Measurements as given in patent US20090062294A1, “HETEROARYL-SUBSTITUTED UREA MODULATORS OF FATTY ACID AMIDE HYDROLASE” (priority 2007, published 2009).
Where a name gives a salt, the structure may show the parent alone.

Tests used:
rat FAAH = target: T1, rat FAAH (Rattus norvegicus, UniProt P97612); experiment: Assay Method 2: FAAH assay, 3H-anandamide hydrolysis in homogenate of SK-N-MC cells transfected with rat FAAH; assay type: biochemical; conditions: average of results, > = solubility limit or highest concentration tested
T1 sequence (P97612 1-579): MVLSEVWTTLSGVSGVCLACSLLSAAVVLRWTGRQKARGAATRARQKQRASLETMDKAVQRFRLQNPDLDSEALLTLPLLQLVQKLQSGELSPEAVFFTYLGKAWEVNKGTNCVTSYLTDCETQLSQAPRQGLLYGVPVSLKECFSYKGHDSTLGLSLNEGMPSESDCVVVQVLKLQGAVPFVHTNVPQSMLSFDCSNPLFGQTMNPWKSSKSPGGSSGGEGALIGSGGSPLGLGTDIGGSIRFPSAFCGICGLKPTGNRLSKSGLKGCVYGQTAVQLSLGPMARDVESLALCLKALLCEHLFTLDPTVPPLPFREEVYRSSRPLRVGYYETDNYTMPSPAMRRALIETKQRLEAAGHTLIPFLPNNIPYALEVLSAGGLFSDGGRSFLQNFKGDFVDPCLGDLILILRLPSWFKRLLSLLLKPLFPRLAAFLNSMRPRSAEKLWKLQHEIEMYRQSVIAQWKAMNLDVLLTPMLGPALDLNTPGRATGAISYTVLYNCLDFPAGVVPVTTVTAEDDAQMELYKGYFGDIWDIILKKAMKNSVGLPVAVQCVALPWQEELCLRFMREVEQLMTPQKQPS
Method in brief: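 Homogenate of SK-N-MC cells stably transfected with rat FAAH cDNA (G418-selected clones) in pH 9 Tris/EDTA/glycerol/Triton buffer. Incubated with compound and 80 nM final [3H]-anandamide for 1 h at rt. Released [3H]-ethanolamine separated from substrate on activated charcoal filters and counted by scintillation.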

FAAH = target: T2, FAAH (Homo sapiens, UniProt O00519); experiment: Assay Method 1: FAAH assay, 3H-anandamide hydrolysis in homogenate of T84 cells or SK-N-MC cells transfected with human FAAH; assay type: biochemical; conditions: average of results, > = solubility limit or highest concentration tested
T2 sequence (O00519 1-579): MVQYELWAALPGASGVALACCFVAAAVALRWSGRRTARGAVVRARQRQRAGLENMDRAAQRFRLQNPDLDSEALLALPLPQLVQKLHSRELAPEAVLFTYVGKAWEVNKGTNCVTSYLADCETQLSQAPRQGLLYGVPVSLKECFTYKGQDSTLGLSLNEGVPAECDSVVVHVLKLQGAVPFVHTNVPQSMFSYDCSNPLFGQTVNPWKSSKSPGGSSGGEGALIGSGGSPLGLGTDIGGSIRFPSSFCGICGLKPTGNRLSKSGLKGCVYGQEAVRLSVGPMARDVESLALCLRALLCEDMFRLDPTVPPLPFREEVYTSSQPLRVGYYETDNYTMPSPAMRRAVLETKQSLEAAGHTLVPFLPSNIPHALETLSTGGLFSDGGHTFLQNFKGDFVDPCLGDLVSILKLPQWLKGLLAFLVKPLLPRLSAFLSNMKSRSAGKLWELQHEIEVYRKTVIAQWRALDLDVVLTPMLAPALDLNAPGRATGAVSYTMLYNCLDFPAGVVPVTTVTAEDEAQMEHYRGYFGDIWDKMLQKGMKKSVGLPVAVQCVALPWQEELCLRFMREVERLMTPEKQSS
Method in brief: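 Homogenates of T84 cells or of SK-N-MC cells stably transfected with human FAAH (G418-selected) were prepared in pH 9 Tris/EDTA/glycerol/Triton buffer. They were incubated with compound and 80 nM final ^3H-anandamide for 1 h at rt. Released ^3H-ethanolamine was separated on activated charcoal and counted by scintillation.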

| IC50 (rat FAAH) [nM] | IC50 (FAAH) [nM] | Compound |
| --- | --- | --- |
| 1160 | 1750 | O=C(Nc1cnccn1)N1CCN(Cc2ccc3c(c2)OC(F)(F)O3)CC1 [Example 210, 4-[(2,2-Difluoro-1,3-benzodioxol-5-yl)methyl]-N-pyrazin-2-ylpiperazine-1-carboxamide] |
| > 10000 | 3000 | O=C(Nc1cnccn1)N1CCN(Cc2ccc3c(c2)OCO3)CC1 [Example 211, 4-(1,3-Benzodioxol-5-ylmethyl)-N-pyrazin-2-ylpiperazine-1-carboxamide] |
| 8000 | 500 | O=C(Nc1cnccn1)N1CCN(Cc2ccc(Br)cc2)CC1 [Example 212, 4-(4-Bromobenzyl)-N-pyrazin-2-ylpiperazine-1-carboxamide] |
| 320 | 100 | O=C(Nc1cnccn1)N1CCN(Cc2ccc3ccccc3c2)CC1 [Example 213, 4-(Naphthalen-2-ylmethyl)-N-pyrazin-2-ylpiperazine-1-carboxamide] |
| > 10000 | > 10000 | O=C(Nc1cnccn1)N1CCN(Cc2ccc3[nH]ccc3c2)CC1 [Example 216, 4-(1H-Indol-5-ylmethyl)-N-pyrazin-2-ylpiperazine-1-carboxamide] |
| 250 | 150 | O=C(Nc1cnccn1)N1CCN(Cc2ccc(Br)c(Br)c2)CC1 [Example 217, 4-(3,4-Dibromobenzyl)-N-pyrazin-2-ylpiperazine-1-carboxamide] |
| 700 | 170 | O=C(Nc1cnccn1)N1CCN(Cc2cc3ccccc3s2)CC1 [Example 218, 4-(1-Benzothiophen-2-ylmethyl)-N-pyrazin-2-ylpiperazine-1-carboxamide] |
| 430 | 320 | O=C(Nc1cnccn1)N1CCN(Cc2ccc(Cl)c(Cl)c2)CC1 [Example 220, 4-(3,4-Dichlorobenzyl)-N-pyrazin-2-ylpiperazine-1-carboxamide] |
| 600 | 700 | O=C(Nc1cnccn1)N1CCN(Cc2ccc(Br)c(F)c2)CC1 [Example 222, 4-(4-Bromo-3-fluorobenzyl)-N-pyrazin-2-ylpiperazine-1-carboxamide] |
| > 10000 | 4000 | O=C(Nc1cnccn1)N1CCN(Cc2cnc3ccccc3c2)CC1 [Example 224, N-Pyrazin-2-yl-4-(quinolin-3-ylmethyl)piperazine-1-carboxamide] |
| 6000 | 4000 | O=C(Nc1cnccn1)N1CCN(Cc2cc3ccccc3o2)CC1 [Example 230, 4-Benzofuran-2-ylmethyl-piperazine-1-carboxylic acid pyrazin-2-ylamide] |

Continued, compound first:

| Compound | IC50 (rat FAAH) [nM] | IC50 (FAAH) [nM] |
| --- | --- | --- |
| O=C(Nc1cccc2nsnc12)N1CCN(Cc2cccc(C#Cc3ccccc3)c2)CC1 [Example 202, N-2,1,3-Benzothiadiazol-4-yl-4-{[3-(phenylethynyl)phenyl]methyl}-piperazine-1-carboxamide] | 85 | 45 |
| O=C(Nc1cccc2nonc12)N1CCN(Cc2cccc(C#Cc3ccccc3)c2)CC1 [Example 203, N-2,1,3-Benzoxadiazol-4-yl-4-{[3-(phenylethynyl)phenyl]methyl}-piperazine-1-carboxamide] | 350 | 210 |
| O=C(Nc1noc2ccccc12)N1CCN(Cc2cccc(Oc3ccc(C(F)(F)F)c(Cl)c3)c2)CC1 [Example 204, 4-[3-(3-Chloro-4-trifluoromethyl-phenoxy)-benzyl]-piperazine-1-carboxylic acid benzo[d]isoxazol-3-ylamide trifluoroacetic acid salt] | 32 | 14 |
| O=C(Nc1noc2ccccc12)N1CCN(Cc2cccc(Oc3ccc(Cl)c(C(F)(F)F)c3)c2)CC1 [Example 205, 4-[3-(4-Chloro-3-trifluoromethyl-phenoxy)-benzyl]-piperazine-1-carboxylic acid benzo[d]isoxazol-3-ylamide trifluoroacetic acid salt] | 225 | 106 |
| O=C(Nc1noc2ccccc12)N1CCN(Cc2cccc(Oc3ccc(Cl)c(F)c3)c2)CC1 [Example 206, 4-[3-(4-Chloro-3-fluoro-phenoxy)-benzyl]-piperazine-1-carboxylic acid benzo[d]isoxazol-3-ylamide] | 21 | 11 |
| O=C(Nc1noc2ccccc12)N1CCN(Cc2cccc(Oc3ccc(F)c(Cl)c3)c2)CC1 [Example 207, 4-[3-(3-Chloro-4-fluoro-phenoxy)-benzyl]-piperazine-1-carboxylic acid benzo[d]isoxazol-3-ylamide] | 46 | 34 |
| O=C(Nc1noc2ccccc12)N1CCN(Cc2cccc(Oc3ccc(F)cc3)c2)CC1 [Example 208, 4-[3-(4-Fluoro-phenoxy)-benzyl]-piperazine-1-carboxylic acid benzo[d]isoxazol-3-ylamide] | 17 | 21 |
| CCCCc1ccc(Oc2cccc(CN3CCN(C(=O)Nc4noc5ccccc45)CC3)c2)cc1 [Example 209, 4-[3-(4-Butyl-phenoxy)-benzyl]-piperazine-1-carboxylic acid benzo[d]isoxazol-3-ylamide] | 2 | 9 |
| O=C(Nc1cnccn1)N1CCN(Cc2cccc(Oc3ccc(OCC(F)(F)F)cc3)c2)CC1 [Example 214, N-Pyrazin-2-yl-4-{3-[4-(2,2,2-trifluoroethoxy)phenoxy]benzyl}-piperazine-1-carboxamide] | 90 | 15 |
| O=C(Nc1cnccn1)N1CCN(Cc2cccc(Oc3ccc(C(F)(F)F)cc3)c2)CC1 [Example 215, N-Pyrazin-2-yl-4-{3-[4-(trifluoromethyl)phenoxy]benzyl}piperazine-1-carboxamide] | 30 | 1 |
| O=C(Nc1cnccn1)N1CCN(Cc2cccc(Oc3ccc(Br)cc3)c2)CC1 [Example 221, 4-[3-(4-Bromophenoxy)benzyl]-N-pyrazin-2-ylpiperazine-1-carboxamide] | 50 | 3 |
| O=C(Nc1cnccn1)N1CCN(Cc2cccc(Oc3cccc(Cl)c3)c2)CC1 [Example 225, 4-[3-(3-Chlorophenoxy)benzyl]-N-pyrazin-2-ylpiperazine-1-carboxamide] | 535 | 43 |
| O=C(Nc1cnccn1)N1CCN(Cc2cccc(Oc3ccc(S(=O)(=O)C(F)(F)F)cc3)c2)CC1 [Example 226, N-Pyrazin-2-yl-4-(3-{4-[(trifluoromethyl)sulfonyl]phenoxy}benzyl)-piperazine-1-carboxamide] | 40 | 6 |
| O=C(Nc1cnccn1)N1CCN(Cc2cccc(Oc3ccccc3)c2)CC1 [Example 227, 4-(3-Phenoxy-benzyl)-piperazine-1-carboxylic acid pyrazin-2-ylamide] | 5300 | 400 |
| O=C(Nc1cnccn1)N1CCN(Cc2cccc(Oc3ccc4ccccc4c3)c2)CC1 [Example 228, 4-[3-(Naphthalen-2-yloxy)-benzyl]-piperazine-1-carboxylic acid pyrazin-2-ylamide] | 80 | 30 |
| N#Cc1ccc(Oc2cccc(CN3CCN(C(=O)Nc4cnccn4)CC3)c2)cc1 [Example 229, 4-[3-(4-Cyano-phenoxy)-benzyl]-piperazine-1-carboxylic acid pyrazin-2-ylamide] | 3000 | 200 |
| O=C(Nc1cnccn1)N1CCN(Cc2cccc(Oc3ccc(F)c(F)c3)c2)CC1 [Example 231, 4-[3-(3,4-Difluorophenoxy)benzyl]-N-pyrazin-2-ylpiperazine-1-carboxamide] | 3600 | 130 |
| O=C(Nc1cnccn1)N1CCN(Cc2cccc(Oc3ccc4ncccc4c3)c2)CC1 [Example 232, N-Pyrazin-2-yl-4-[3-(quinolin-6-yloxy)benzyl]piperazine-1-carboxamide] | 240 | 40 |
| O=C(Nc1cnccn1)N1CCN(Cc2cccc(Oc3ccc(OC(F)(F)F)cc3)c2)CC1 [Example 233, N-Pyrazin-2-yl-4-{3-[4-(trifluoromethoxy)phenoxy]benzyl}piperazine-1-carboxamide] | 140 | 10 |
